Data reported in patent US20050164951A1, “Inhibitors for the soluble epoxide hydrolase” (The Regents of the University of California, priority 2003, published 2005).
Like-named read-outs stand apart in the source and are kept apart here.

What was measured:
[1] = Blood concentration after oral administration of 950 and AUDA-nBE, human pharmacokinetic profile; type: in vivo
Description: FIG. 16 provides a sample preparation procedure for a pharmacokinetic study. A 5 μl whole blood sample was drawn into a capillary at a specific time point, each sample was extracted and anaylzed by LC/MS-MS. […] AUDA is the active metabolite of AUDA-nBE. […] 0.05 mg/kg. (B). 0.1 mg/kg. […] The compounds were administered at the same time in the same formulation. […] 21 mg (0.3 mg/kg) 950 and AUDA-nBE were orally administrated with starch. (B). 7 mg (0.1 mg/kg) formulated 950 and AUDA-NBE were taken with (HPMC, starch and lactose). (C). […] 950 with HPMC and Starch. (B). 950 in lactose and HPMC. […] HPMC forms a gel which slowly erodes; lactose enhances erosion at it moves through the gut and starch retards it. These formulations are combined, ball milled, and then placed in ‘0’ capsule and not compressed.

mouse sEH = molecular target: T1, mouse sEH (Mus musculus, UniProt P34914); assay: Inhibition of recombinant mouse sEH, IC50 assay with 4-nitrophenyl-trans-2,3-epoxy-3-phenylpropyl carbonate as substrate; type: biochemical; conditions: read-out: IC50 (μM) Mouse sEH
T1 construct: made in house; host or cells: baculovirus expression system
T1 sequence (P34914 1-554): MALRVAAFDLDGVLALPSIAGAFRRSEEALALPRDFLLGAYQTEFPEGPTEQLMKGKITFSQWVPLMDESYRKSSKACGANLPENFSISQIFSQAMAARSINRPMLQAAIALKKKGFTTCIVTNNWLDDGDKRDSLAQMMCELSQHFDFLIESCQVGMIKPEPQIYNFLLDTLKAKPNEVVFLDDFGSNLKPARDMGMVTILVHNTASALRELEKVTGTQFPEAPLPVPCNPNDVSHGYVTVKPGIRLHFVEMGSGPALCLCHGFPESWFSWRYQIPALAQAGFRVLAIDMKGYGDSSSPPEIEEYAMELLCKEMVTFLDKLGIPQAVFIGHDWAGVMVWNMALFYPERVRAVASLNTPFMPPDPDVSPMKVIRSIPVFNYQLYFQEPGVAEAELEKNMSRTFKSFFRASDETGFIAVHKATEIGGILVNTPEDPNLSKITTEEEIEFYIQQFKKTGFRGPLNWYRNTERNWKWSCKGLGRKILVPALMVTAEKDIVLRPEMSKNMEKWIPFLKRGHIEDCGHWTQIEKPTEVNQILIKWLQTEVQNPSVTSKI
Description: (§1) Assays were performed in triplicate. […] The curve was generated from at least three separate runs, each in triplicate, to obtain the standard deviation (SD) given in Table 1 thru Table 4.

human sEH = molecular target: T2, human sEH (Homo sapiens, UniProt P34913); assay: Inhibition of recombinant human sEH, IC50 assay with 4-nitrophenyl-trans-2,3-epoxy-3-phenylpropyl carbonate as substrate; type: biochemical
T2 construct: made in house; host or cells: baculovirus expression system
T2 sequence (P34913 1-555): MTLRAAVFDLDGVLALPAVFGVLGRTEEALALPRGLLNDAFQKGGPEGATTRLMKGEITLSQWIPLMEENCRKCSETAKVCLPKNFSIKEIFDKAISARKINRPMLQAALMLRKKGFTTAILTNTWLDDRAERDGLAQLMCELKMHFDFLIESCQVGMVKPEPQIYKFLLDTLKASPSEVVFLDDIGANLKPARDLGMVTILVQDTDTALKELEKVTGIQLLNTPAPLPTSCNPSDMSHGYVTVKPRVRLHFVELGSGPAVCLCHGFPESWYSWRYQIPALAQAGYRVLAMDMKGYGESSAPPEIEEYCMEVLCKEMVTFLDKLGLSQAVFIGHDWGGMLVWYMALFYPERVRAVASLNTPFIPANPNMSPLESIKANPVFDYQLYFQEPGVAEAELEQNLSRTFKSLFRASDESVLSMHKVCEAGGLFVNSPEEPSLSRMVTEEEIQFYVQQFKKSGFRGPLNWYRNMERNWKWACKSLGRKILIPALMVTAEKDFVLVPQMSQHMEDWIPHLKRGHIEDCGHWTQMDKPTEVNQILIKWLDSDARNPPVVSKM
Description: as §1

[2] = Tables 17a and b, read-out: IC50 (μM) Human sEH
[3] = Table 7, established protocols, read-out: IC50 (μM) Human sEH
[4] = Table 9, established protocols, read-out: IC50 (μM) Human sEH
[5] = Table 8, established protocols, read-out: IC50 (μM) Human sEH

Row | SMILES | IC50 (mouse sEH; Tables 17a and b) [µM] | IC50 (human sEH; [2]) [µM] | further results
1 | COCCOCCOCCOCCCCCNC(=O)NC12CC3CC(CC(C3)C1)C2 [Compound 952] | – | – | pharmacokinetics ([1]; see FIGS. 15-27): improved pharmacokinetics
2 | CCCC(C)COCCCCCNC(=O)NC12CC3CC(CC(C3)C1)C2 (stereo not shown) [Compound 955] | – | – | detection in blood ([1]; FIG. 27, after oral 950): not detected at any time point
3 | O=C(CC1CCCCC1)Nc1ccccc1 [Compound 964] | 3.7 ± 0.01 | 16 ± 0.01 | –
4 | COc1ccc(NC(=O)CC2CCCCC2)cc1 [Compound 965] | 0.15 ± 0.01 | – | IC50 (human sEH): 6 ± 0.01 µM
5 | O=C(CC1CCCCC1)Nc1cccc(Cl)c1 [Compound 966] | 0.58 ± 0.01 | 2.1 ± 0.01 | –
6 | O=C(CC12CC3CC(CC(C3)C1)C2)NCCCc1ccccc1 [Compound 967] | 0.07 ± 0.01 | 0.12 ± 0.01 | –
7 | O=C(Cc1ccccc1)NC1CCCCC1 [Compound 968] | 2.4 ± 0.01 | 14 ± 0.01 | –
8 | O=C(Cc1cccc(Cl)c1)NC1CCCCC1 [Compound 969] | 0.56 ± 0.01 | 38 ± 0.01 | –
9 | COc1ccc(CC(=O)NC2CCCCC2)cc1 [Compound 970] | 1.4 ± 0.01 | 4.8 ± 0.01 | –
10 | O=C(CCCc1ccccc1)NC1CCCCC1 [Compound 971] | 0.11 ± 0.01 | 1.4 ± 0.01 | –
11 | CC(C)OCCOCCOCCCCCNC(=O)NC12CC3CC(CC(C3)C1)C2 [Compound 974] | 0.05 ± 0.01 | 0.1 ± 0.01 | –
12 | O=C(NCCCCCOCCOCCOCCO)NC12CC3CC(CC(C3)C1)C2 [Compound 975] | – | – | IC50 (mouse sEH; Table 7, established protocols): 0.05 ± 0.01 µM; IC50 (human sEH; [3]): 0.1 ± 0.01 µM
13 | CC(O)c1cccc2c(S(=O)(=O)NCCOCCOCCCCCNC(=O)NC34CC5CC(CC(C5)C3)C4)cccc12 (stereo not shown) [Compound 976] | 0.05 ± 0.01 | 0.1 ± 0.01 | –
14 | CCCCC(CO)NC(=O)NC1CCCCC1 (stereo not shown) [Compound 977] | 0.1 ± 0.01 | 0.25 ± 0.01 | –
15 | CCCCC(CO)NC(=O)Nc1cccc(Cl)c1 (stereo not shown) [Compound 978] | 8.4 ± 0.01 | 1.9 ± 0.01 | –
16 | CCCCC1COC(Nc2cccc(Cl)c2)=N1 (stereo not shown) [Compound 980] | 49 ± 0.01 | 60 ± 0.01 | –
17 | C=CCOC1CCC(NC(=O)NC23CC4CC(CC(C4)C2)C3)CC1 (stereo not shown) [Compound 982] | – | – | IC50 (mouse sEH; Table 9, established protocols): 0.05 ± 0.01 µM; IC50 (human sEH; [4]): 0.1 ± 0.01 µM
18 | CC(C)=CCOC1CCC(NC(=O)NC23CC4CC(CC(C4)C2)C3)CC1 (stereo not shown) [Compound 983] | – | – | IC50 (mouse sEH; Table 9, established protocols): 0.05 ± 0.01 µM; IC50 (human sEH; [4]): 0.1 ± 0.01 µM
19 | CC(C)=CCC/C(C)=C/COC1CCC(NC(=O)NC23CC4CC(CC(C4)C2)C3)CC1 (stereo not shown) [Compound 984] | – | – | IC50 (mouse sEH; Table 9, established protocols): 0.05 ± 0.01 µM; IC50 (human sEH; [4]): 0.1 ± 0.01 µM
20 | O=C(NC1CCC(OCCOCCOCC(F)(F)F)CC1)NC12CC3CC(CC(C3)C1)C2 (stereo not shown) [Compound 985] | – | – | IC50 (mouse sEH; Table 9, established protocols): 0.05 ± 0.01 µM; IC50 (human sEH; [4]): 0.1 ± 0.01 µM
21 | CC(C)c1cccc2c(S(=O)(=O)NCCCOCCCCCNC(=O)NC34CC5CC(CC(C5)C3)C4)cccc12 [Compound 986] | 0.05 ± 0.01 | 0.29 ± 0.01 | –

Row | SMILES | IC50 (mouse sEH; Tables 17a and b) [µM] | IC50 (human sEH; [2]) [µM] | further results
22 | CCCCCOC(=O)CCCCC(=O)Nc1cccc(Cl)c1 [Compound 987] | 1.7 ± 0.01 | 5.9 ± 0.01 | –
23 | CCCCCOC(=O)CCCNC(=O)Cc1cccc(Cl)c1 [Compound 988] | 2.9 ± 0.01 | 5 ± 0.01 | –
24 | CCCCCCCCCCCC(=O)NC12CC3CC(CC(C3)C1)C2 [Compound 989] | – | – | IC50 (mouse sEH; Table 8, established protocols): 0.05 ± 0.01 µM; IC50 (human sEH; [5]): 5 ± 0.3 µM
25 | O=C(CC1CCCCC1)NCCCc1ccccc1 [Compound 990] | 0.73 ± 0.01 | 1.1 ± 0.01 | –
26 | O=C(CCCCc1ccccc1)NC1CCCCC1 [Compound 992] | 0.05 ± 0.01 | 1.6 ± 0.01 | –
27 | O=C(CC1CCCCC1)NCCc1ccccc1 [Compound 993] | 2.1 ± 0.01 | 4 ± 0.01 | –
28 | CCCCC(O)CCCCNC(=O)NC12CC3CC(CC(C3)C1)C2 (stereo not shown) [Compound 994] | 0.05 ± 0.01 | 0.1 ± 0.01 | –
29 | CCCCCNC(=O)NC(CO)c1ccccc1 (stereo not shown) [Compound 995] | 11 ± 0.01 | 22.1 ± 0.01 | –
30 | O=C(NCCCCCCCCCCCn1ccnc1)NC12CC3CC(CC(C3)C1)C2 [Compound 997] | 2.3 ± 0.01 | 63 ± 0.01 | –
31 | O=C(Nc1ccc2ccccc2c1)NC1CCCCC1 [Compound 998] | 0.1 ± 0.01 | 3.7 ± 0.01 | –
32 | CCCCCCCCC(NC(=O)CCCCCCCCCCCNC(=O)NC12CC3CC(CC(C3)C1)C2)C(=O)O (stereo not shown) [Compound 1001] | 0.05 ± 0.01 | 0.24 ± 0.01 | –
33 | CCCC(C)COCCOCCOCCCCCNC(=O)NC12CC3CC(CC(C3)C1)C2 (stereo not shown) [Compound 1003] | 0.05 ± 0.01 | 0.13 ± 0.01 | IC50 (mouse sEH; Table 7, established protocols): 0.05 ± 0.01 µM; IC50 (human sEH; [3]): 0.13 ± 0.01 µM
34 | O=C(NCCCCCOCCCCCOCC(F)(F)F)NC12CC3CC(CC(C3)C1)C2 [Compound 1004] | 0.05 ± 0.01 | 0.16 ± 0.01 | IC50 (mouse sEH; Table 7, established protocols): 0.05 ± 0.01 µM; IC50 (human sEH; [3]): 0.13 ± 0.01 µM
35 | CCOC(=O)CCCCCCOCCCCCNC(=O)NC12CC3CC(CC(C3)C1)C2 [Compound 1006] | 0.05 ± 0.01 | 0.11 ± 0.01 | IC50 (mouse sEH; Table 7, established protocols): 0.05 ± 0.01 µM; IC50 (human sEH; [3]): 0.11 ± 0.01 µM
36 | O=C(CCCNC(=O)NC12CC3CC(CC(C3)C1)C2)NC(C(=O)N1CCCC1C(=O)O)c1c[nH]cn1 (stereo not shown) [Compound 1012] | 0.09 ± 0.01 | 100 ± 0.01 | –
37 | CSC(NC(=O)C(NC(=O)CCCNC(=O)NC12CC3CC(CC(C3)C1)C2)c1c[nH]cn1)C(=O)O (stereo not shown) [Compound 1013] | 0.05 ± 0.01 | 1.5 ± 0.01 | –
38 | CCOC(=O)c1ccc(C(C#N)OC(=O)C2CCCC(NC(=O)NC34CC5CC(CC(C5)C3)C4)C2)cc1 (stereo not shown) [Compound 1014] | – | – | IC50 (mouse sEH; Table 9, established protocols): 0.05 ± 0.01 µM; IC50 (human sEH; [4]): 0.14 ± 0.01 µM
39 | O=C(NN1CCOCC1)NC12CC3CC(CC(C3)C1)C2 [Compound 1015] | 1.3 ± 0.01 | 8.7 ± 0.01 | –
40 | O=C(NCCCN1CCOCC1)NC12CC3CC(CC(C3)C1)C2 [Compound 1016] | 0.05 ± 0.01 | 6 ± 0.01 | –
41 | CCCCCOC(=O)CCCNC(=O)CC12CC3CC(CC(C3)C1)C2 [Compound 1017] | – | – | IC50 (mouse sEH; Table 8, established protocols): 0.05 ± 0.01 µM; IC50 (human sEH; [5]): 0.43 ± 0.02 µM
42 | CCCCCCCCCCNC(=O)CC12CC3CC(CC(C3)C1)C2 [Compound 1018] | – | – | IC50 (mouse sEH; Table 8, established protocols): 0.05 ± 0.01 µM; IC50 (human sEH; [5]): 0.1 ± 0.01 µM
